According to article PMC11796197, “Targeting AI-2 quorum sensing: harnessing natural products against Streptococcus suis biofilm infection” (Veterinary Research, 2025):

Biological target: LuxS (S-ribosylhomocysteinase) (Streptococcus suis, UniProt A4VZM6)
Experiment: Ellman (DTNB) homocysteine assay, […] nm, SRH as substrate
Assay type: biochemical
Conditions: SRH 0-1200 uM, sodium phosphate buffer, 37 C, 15 min, LuxS 1 mg/mL

Sequence of LuxS (S-ribosylhomocysteinase) (A4VZM6 whole entry): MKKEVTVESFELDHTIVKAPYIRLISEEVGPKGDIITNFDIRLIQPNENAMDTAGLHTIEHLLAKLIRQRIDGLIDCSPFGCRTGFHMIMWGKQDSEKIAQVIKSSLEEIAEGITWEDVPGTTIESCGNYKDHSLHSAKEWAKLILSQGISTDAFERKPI

Structure (SMILES)	Ellman (DTNB) homocysteine assay, 412 nm, SRH as substrate (competitive)	Ellman (DTNB) homocysteine assay, 412 nm, SRH as substrate (noncompetitive)
COc1ccc(/C=C/c2cc(O)cc(O[C@@H]3O[C@H](CO)[C@@H](O)[C@H](O)[C@H]3O)c2)cc1O [RH, rhapontin]	indicating a competitive inhibitory impact of RH on LuxS	–
O=C(/C=C/c1ccc(O)c(O)c1/C=C/c1ccc(O)c(O)c1)O[C@H](Cc1ccc(O)c(O)c1)C(=O)O [SAA, salvianolic acid A]	–	suggesting a noncompetitive inhibitory effect of SAA on LuxS
